# Where “and” joins values, the source holds several entries; their conditions need not be identical. Equal values may be shown once.
# Key:
# [1] = tested on: C. neoformans strain H99; test: Murine model of cryptococcal meningitis, APX001 alone and with FLC (no ABT); assay type: in vivo, Cryptococcus neoformans
# Description: The efficacies of APX001 and FLC were evaluated in a well-established mouse CM model ([34]). Since Cryptococcus infections can be hematogenously disseminated to other organs, the numbers of CFU in both lung and brain tissue were evaluated. Male CD-1 mice were infected with 5.9 × 10^4 CFU of C. neoformans strain H99 via lateral tail vein injection. Mice were assigned to four groups (n = 10), consisting of (i) treatment with APX001, (ii) treatment with APX001 plus FLC, (iii) treatment with FLC, or (iv) no treatment as a control. Treatment was initiated within 1 h after infection. APX001 was administered by oral gavage at a dose of 390 mg/kg thrice daily (TID), with each dose being administered roughly 8 h apart. […] FLC (2 mg/ml; Sagent Pharmaceuticals, Schaumburg, IL) was administered at a dose of 80 mg/kg/day intraperitoneally (i.p.).
# Brain and lung burdens in mice were measured at 7 days postinfection with C. neoformans H99. Male CD-1 mice were infected with 5.9 × 10^4 CFU of C. neoformans strain H99 via the lateral tail vein. Treatment was initiated at about 1 h postinfection and continued for 7 days. APX001 was administered by oral gavage at a dose of 390 mg/kg thrice daily, with each dose being administered roughly 8 h apart. FLC (2 mg/ml; Sagent Pharmaceuticals, Schaumburg, IL) was administered at a dose of 80 mg/kg/day i.p. once daily. Fungal burden data were log10 transformed and evaluated using Kruskal-Wallis tests with Dunn's multiple-comparison test for post hoc analysis (Prism software, v5; GraphPad Software, Inc., San Diego, CA). A P value of ≤0.05 was considered statistically significant (*, P ≤ 0.05; **, P ≤ 0.01; ***, P ≤ 0.001). The 95% confidence interval (CI) is presented.
# (§1) C. neoformans strain H99 was grown in yeast extract-peptone-dextrose broth at 30°C on a shaker (220 rpm) for 24 h, centrifuged (1,980 relative centrifugal force), and washed twice in phosphate-buffered saline (PBS), resuspended in PBS, and quantified by hemacytometric count. Male CD-1 mice were infected with ∼5 × 10^4 CFU per mouse via lateral tail vein injection of 100 μl. Mice were weighed, and treatment was begun within 1 h after infection. Treatments were administered daily for 7 days. Mice were weighed daily and observed for acute and chronic adverse symptoms. Mice were sacrificed on day 8, and the brain and left lung were homogenized and cultured for quantitative determination of the tissue burden (number of CFU per gram of tissue). Tissues were homogenized for 25 s in 1 ml phosphate-buffered saline using two 6.5-mm steel beads and a Mini-Beadbeater 16 apparatus (Biospec Products, Inc., Bartlesville, OK) and serially diluted in 10-fold steps. Aliquots (100 μl) of homogenate were plated and incubated for 3 to 7 days at 37°C. Fungal burden data were log10 transformed and evaluated using Kruskal-Wallis tests with Dunn's multiple-comparison test for post hoc analysis (Prism software, v5; GraphPad Software, Inc., San Diego, CA). A P value of ≤0.05 was considered statistically significant.
# [2] = tested on: C. neoformans strain H99; test: Murine cryptococcal meningitis model with ABT pretreatment (preliminary experiment); assay type: in vivo, Cryptococcus neoformans
# Description: In a preliminary experiment, the efficacies of APX001, APX2096, and APX2097 were evaluated in the disseminated model of CM (n = 5 mice/cohort). ABT at 100 mg/kg was administered orally to male CD-1 mice 2 h prior to APX compound administration. Mice were injected with 6.9 × 10^4 CFU of C. neoformans strain H99 per mouse via the lateral tail vein at time zero. Treatment with each prodrug was initiated at about 1 h postinfection by i.p. administration and continued daily for 7 days, with 100-mg/kg ABT being administered orally 2 h prior to each APX compound dose.
# (§2) ABT at 100 mg/kg was administered orally to male CD-1 mice at 2 h prior to each APX compound dose. Mice were injected with 6.9 × 10^4 CFU of C. neoformans strain H99 per mouse via the lateral tail vein at time zero. Treatment with the APX compound was initiated at about 1 h postinfection by i.p. administration and continued for 7 days, with 100-mg/kg ABT being administered orally 2 h prior to each APX compound dose. […] Fungal burden data were log10 transformed and evaluated using Kruskal-Wallis tests with Dunn's multiple-comparison test for post hoc analysis (Prism software, v5; GraphPad Software, Inc., San Diego, CA). A P value of ≤0.05 was considered statistically significant (*, P ≤ 0.05; **, P ≤ 0.01). The 95% confidence interval (CI) is presented.
# as §1
# [3] = Acute toxicity and survival observed in the CM model with ABT; assay type: in vivo, mouse; settings: n = 5 mice/cohort; 7 days i.p. + ABT
# Description: as §2, §1
# [4] = Text: For pharmacokinetic and efficacy studies, the prodrugs APX001, APX2096, APX2097, and APX2104 (Amplyx Pharmaceuticals) were used. […] The prodrugs APX2096, APX2097, and APX2104 were formulated similarly to enable oral and i.p. dosing of compounds for pharmacokinetic and efficacy studies.
# [5] = set-up: method as in ref 11, 12 = [11]; 11. Hodges MR , Ople E , Shaw KJ , Mansbach RS , van Marle S , van Hoogdalem E , Kramer W , Wedel P 2017 Phase 1 study to assess safety, tolerability and pharmacokinetics of single and multiple oral d || [12]; 12. Hodges MR , Ople E , Shaw KJ , Mansbach RS , van Marle S , van Hoogdalem E , Wedel P , Kramer W 2017 First-in-human study to assess safety, tolerability and pharmacokinetics of APX001 administered; settings: cited from earlier work
# [6] = tested on: C. albicans; set-up: method as in ref 23 = [23]; 23. Zhao Y , Lee M , Lee A , Paderu P , Park S , Perlin DS 2018 APX001 is effective against echinocandin and multi-drug resistant Candida isolates . Abstr 28th ECCMID , Madrid, Spain .; settings: after ABT administration, after 48 h; cited from earlier work
# [7] = APX001 390 mg/kg TID oral plus FLC 80 mg/kg/day i.p., 7 days
# [8] = monotherapy 7 days, APX001 390 mg/kg TID oral gavage, FLC 80 mg/kg/day i.p., male CD-1 mice
# [9] = 80 mg/kg in the presence of ABT
# [10] = 85 mg/kg QD i.p. + ABT 100 mg/kg p.o., 7 days
compound,measurement,setting,value
Nc1c(-c2cc(Cc3ccc(COc4ccccn4)cc3)no2)ccc[n+]1COP(=O)([O-])O [APX001],"reduction in brain fungal burden vs untreated control, combination of APX001 and FLC",[1]; [7],3.52 log10 CFU/g and 3.51 log10 CFU/g
same,"reduction in lung fungal burden vs untreated control, combined therapy",[1]; [7],1.84 log10 CFU/g
same,reduction in brain fungal burden vs untreated control,[1]; [8],0.78 log10 CFU/g
same,reduction in lung fungal burden vs untreated control,[1]; [8],1.50 log10 CFU/g and 1.5 log10 CFU/g
same,reduction in lung fungal burden,"[2]; 34 mg/kg QD i.p. + ABT 100 mg/kg p.o., 7 days",neither the 34-mg/kg nor the 85-mg/kg dose of APX001 achieved a statistically significant reduction
same,reduction in brain fungal burden,[2]; [9],0.85 log10 CFU/g
same,reduction in lung fungal burden,[2]; [9],0.9 log10 CFU/g
same,reduction in brain fungal burden,[2]; [10],0.85 log10 CFU/g
same,reduction in lung fungal burden,[2]; [10],neither the 34-mg/kg nor the 85-mg/kg dose of APX001 achieved a statistically significant reduction
same,final numbers of surviving mice,[3],5
same,solubility in water,[4],soluble in water
same,bioavailability,[5]; phase 1 clinical trials,> 90%
same,half-life in humans,[5]; phase 1 studies in healthy volunteers,60 h
same,reduction of C. albicans kidney burdens,[6],6.0 ± 0.1 log10 CFU/g kidney tissue
